Assay results taken from patent US9695155B2, “Herbicidal substituted pyrimidinyloxy benzene compounds” (E. I. DU PONT DE NEMOURS AND COMPANY, priority 2013, dated 2017).

Assays:
[1] = system: kochia; test: Test D postemergence; format: in vivo, Kochia scoparia; conditions: for pest or weed control at 16 g/ha / pest or weed control at 31 g/ha / pest or weed control at 62 g/ha / pest or weed control at 125 g/ha: Bassia scoparia, post-emergence; for pest or weed control at 16 g/ha: scale 0-100, read-out: Plant response rating, Kochia; for pest or weed control at 31 g/ha / pest or weed control at 62 g/ha / pest or weed control at 125 g/ha: read-out: Plant response rating, Kochia
Source text: (§1) Seeds of plant species selected from bluegrass (annual bluegrass, Poa annua), blackgrass (Alopecurus myosuroides), canarygrass (littleseed canarygrass, Phalaris minor), chickweed (common chickweed, Stellaria media), galium (catchweed bedstraw, Galium aparine), bromegrass, downy (downy bromegrass, Bromus tectorum), field poppy (Papaver rhoeas), field violet (Viola arvensis), green foxtail (Setaria viridis), deadnettle (henbit deadnettle, Lamium amplexicaule), Italian ryegrass (Lolium multiflorum), kochia (Kochia scoparia), lambsquarters (Chenopodium album), oilseed rape (Brassica napus), pigweed (Amaranthus retroflexus), chamomile (scentless chamomile, Matricaria inodora), Russian thistle (Salsola kali), speedwell (bird's-eye speedwell, Veronica persica), spring barley (Hordeum vulgare), spring wheat (Triticum aestivum), wild buckwheat (Polygonum convolvulus), wild mustard (Sinapis arvensis), wild oat (Avena fatua), wild radish (Raphanus raphanistrum), windgrass (Apera spica-venti), winter barley (Hordeum vulgare), and winter wheat (Triticum aestivum) were planted into a silt loam soil and treated preemergence with test chemicals formulated in a non-phytotoxic solvent mixture which included a surfactant.
(§2) At the same time, these species were planted in pots containing Redi-Earth® planting medium (Scotts Company, 14111 Scottslawn Road, Marysville, Ohio 43041) comprising spaghnum peat moss, vermiculite, wetting agent and starter nutrients and treated with postemergence applications of the test chemicals formulated in the same manner. Plants ranged in height from 2 to 18 cm (1- to 4-leaf stage). Treated plants and controls were maintained in a controlled growth environment for 7 to 21 days after which time all species were compared to controls and visually evaluated. Plant response ratings, summarized in Table D, are based on a scale of 0 to 100 where 0 is no effect and 100 is complete control. A dash (-) response means no test result.

[2] = system: Italian ryegrass; test: Test D postemergence; format: in vivo, Lolium multiflorum; conditions: for pest or weed control at 16 g/ha / pest or weed control at 31 g/ha / pest or weed control at 62 g/ha / pest or weed control at 125 g/ha: Lolium multiflorum, post-emergence; for pest or weed control at 16 g/ha: scale 0-100, read-out: Plant response rating, Ryegrass, Italian; for pest or weed control at 31 g/ha / pest or weed control at 62 g/ha / pest or weed control at 125 g/ha: read-out: Plant response rating, Ryegrass, Italian
Source text: as §1, §2

[3] = system: wild oat; test: Test D postemergence; format: in vivo, Avena fatua; conditions: for pest or weed control at 16 g/ha / pest or weed control at 31 g/ha / pest or weed control at 62 g/ha / pest or weed control at 125 g/ha: Avena fatua, post-emergence; for pest or weed control at 16 g/ha: scale 0-100, read-out: Plant response rating, Oat, Wild; for pest or weed control at 31 g/ha / pest or weed control at 62 g/ha / pest or weed control at 125 g/ha: read-out: Plant response rating, Oat, Wild
Source text: as §1, §2

[4] = system: wild mustard; test: Test D postemergence; format: in vivo, Sinapis arvensis; conditions: for pest or weed control at 16 g/ha / pest or weed control at 31 g/ha / pest or weed control at 62 g/ha / pest or weed control at 125 g/ha: Brassica, post-emergence; for pest or weed control at 16 g/ha: scale 0-100, read-out: Plant response rating, Mustard, Wild; for pest or weed control at 31 g/ha / pest or weed control at 62 g/ha / pest or weed control at 125 g/ha: read-out: Plant response rating, Mustard, Wild
Source text: as §1, §2

[5] = system: spring wheat; test: Test D postemergence; format: in vivo, Triticum aestivum; conditions: for plant injury at 16 g/ha / plant injury at 31 g/ha / plant injury at 62 g/ha / plant injury at 125 g/ha: Triticum aestivum, post-emergence; for plant injury at 16 g/ha: scale 0-100, read-out: Plant response rating, Wheat, Spring; for plant injury at 31 g/ha / plant injury at 62 g/ha / plant injury at 125 g/ha: read-out: Plant response rating, Wheat, Spring
Source text: as §1, §2

[6] = system: winter wheat; test: Test D postemergence; format: in vivo, Triticum aestivum; conditions: for plant injury at 16 g/ha / plant injury at 31 g/ha / plant injury at 62 g/ha / plant injury at 125 g/ha: Triticum aestivum, post-emergence; for plant injury at 16 g/ha: scale 0-100, read-out: Plant response rating, Wheat, Winter; for plant injury at 31 g/ha / plant injury at 62 g/ha / plant injury at 125 g/ha: read-out: Plant response rating, Wheat, Winter
Source text: as §1, §2

[7] = system: wild radish; test: Test D preemergence; format: in vivo, Raphanus raphanistrum; conditions: for pest or weed control at 16 g/ha / pest or weed control at 31 g/ha: read-out: Plant response rating, Radish, Wild
Source text: as §1, §2

[8] = system: bromegrass, downy; test: Test D postemergence; format: in vivo, Bromus tectorum; conditions: for pest or weed control at 16 g/ha / pest or weed control at 31 g/ha / pest or weed control at 62 g/ha / pest or weed control at 125 g/ha: Bromus tectorum, post-emergence, read-out: Plant response rating, Bromegrass, Downy
Source text: as §1, §2

[9] = 31 g ai/ha, scale 0 to 100 (0 no effect, 100 complete control)
[10] = 62 g ai/ha, scale 0 to 100 (0 no effect, 100 complete control)
[11] = 125 g ai/ha, scale 0 to 100 (0 no effect, 100 complete control)
[12] = Raphanus raphanistrum, pre-emergence, 16 g ai/ha, scale 0 (no effect) to 100 (complete control)
[13] = Raphanus raphanistrum, pre-emergence, 31 g ai/ha, scale 0 (no effect) to 100 (complete control)
[14] = Raphanus raphanistrum, pre-emergence, 125 g ai/ha, scale 0-100, read-out: Plant response rating, Radish, Wild
[15] = Postemergence, 16 g ai/ha, scale 0 to 100 (0 no effect, 100 complete control)
[16] = Postemergence, 31 g ai/ha, scale 0 to 100 (0 no effect, 100 complete control)
[17] = Postemergence, 62 g ai/ha, scale 0 to 100 (0 no effect, 100 complete control)
[18] = Postemergence, 125 g ai/ha, scale 0 to 100 (0 no effect, 100 complete control)

## Fc1cccc(Oc2ncc(Cl)cn2)c1-n1cc(C(F)F)nn1 [Compound 141, 5-chloro-2-[2-[4-(difluoromethyl)-1H-1,2,3-triazol-1-yl]-3-fluorophenoxy]pyrimidine]
[1]; 16 g ai/ha
  pest or weed control at 16 g/ha: 70%
[1]; [9]
  pest or weed control at 31 g/ha: 85%
[1]; [10]
  pest or weed control at 62 g/ha: 100%
[1]; [11]
  pest or weed control at 125 g/ha: 100%
[2]; 16 g ai/ha
  pest or weed control at 16 g/ha: 5%
[2]; [9]
  pest or weed control at 31 g/ha: 15%
[2]; [10]
  pest or weed control at 62 g/ha: 20%
[2]; [11]
  pest or weed control at 125 g/ha: 25%
[3]; 16 g ai/ha
  pest or weed control at 16 g/ha: 5%
[3]; [9]
  pest or weed control at 31 g/ha: 10%
[3]; [10]
  pest or weed control at 62 g/ha: 15%
[3]; [11]
  pest or weed control at 125 g/ha: 30%
[4]; 16 g ai/ha
  pest or weed control at 16 g/ha: 80%
[4]; [9]
  pest or weed control at 31 g/ha: 100%
[4]; [10]
  pest or weed control at 62 g/ha: 100%
[4]; [11]
  pest or weed control at 125 g/ha: 100%
[5]; 16 g ai/ha
  plant injury at 16 g/ha: 15%
[5]; [9]
  plant injury at 31 g/ha: 20%
[5]; [10]
  plant injury at 62 g/ha: 25%
[5]; [11]
  plant injury at 125 g/ha: 35%
[6]; 16 g ai/ha
  plant injury at 16 g/ha: 5%
[6]; [9]
  plant injury at 31 g/ha: 5%
[6]; [10]
  plant injury at 62 g/ha: 20%
[6]; [11]
  plant injury at 125 g/ha: 50%
[7]; [12]
  pest or weed control at 16 g/ha: 40%
[7]; [13]
  pest or weed control at 31 g/ha: 98%
[7]; Raphanus raphanistrum, pre-emergence, 62 g ai/ha, scale 0-100, read-out: Plant response rating, Radish, Wild
  pest or weed control at 62 g/ha: 100%
[7]; [14]
  pest or weed control at 125 g/ha: 100%
[8]; [15]
  pest or weed control at 16 g/ha: 15%
[8]; [16]
  pest or weed control at 31 g/ha: 20%
[8]; [17]
  pest or weed control at 62 g/ha: 30%
[8]; [18]
  pest or weed control at 125 g/ha: 45%

## FCc1cccc(Oc2ncc(Cl)cn2)c1-n1cc(I)cn1 [Compound 245]
[1]; 16 g ai/ha, scale 0-100
  Plant response rating, Kochia: 25
[1]; [9]
  Plant response rating, Kochia: 70
[1]; [10]
  Plant response rating, Kochia: 90
[1]; [11]
  Plant response rating, Kochia: 90
[2]; 16 g ai/ha, scale 0-100
  Plant response rating, Ryegrass, Italian: 0
[2]; [9]
  Plant response rating, Ryegrass, Italian: 10
[2]; [10]
  Plant response rating, Ryegrass, Italian: 20
[2]; [11]
  Plant response rating, Ryegrass, Italian: 20
[3]; 16 g ai/ha, scale 0-100
  Plant response rating, Oat, Wild: 0
[3]; [9]
  Plant response rating, Oat, Wild: 0
[3]; [10]
  Plant response rating, Oat, Wild: 10
[3]; [11]
  Plant response rating, Oat, Wild: 10
[4]; 16 g ai/ha, scale 0-100
  Plant response rating, Mustard, Wild: 80
[4]; [9]
  Plant response rating, Mustard, Wild: 70
[4]; [10]
  Plant response rating, Mustard, Wild: 100
[4]; [11]
  Plant response rating, Mustard, Wild: 98
[5]; 16 g ai/ha, scale 0-100
  Plant response rating, Wheat, Spring: 10
[5]; [9]
  Plant response rating, Wheat, Spring: 10
[5]; [10]
  Plant response rating, Wheat, Spring: 10
[5]; [11]
  Plant response rating, Wheat, Spring: 20
[6]; 16 g ai/ha, scale 0-100
  Plant response rating, Wheat, Winter: 5
[6]; [9]
  Plant response rating, Wheat, Winter: 10
[6]; [10]
  Plant response rating, Wheat, Winter: 10
[6]; [11]
  Plant response rating, Wheat, Winter: 10
[7]; 16 g ai/ha, scale 0 (no effect) to 100 (complete control)
  Plant response rating, Radish, Wild: 0
[7]; 31 g ai/ha, scale 0 (no effect) to 100 (complete control)
  Plant response rating, Radish, Wild: 0
[7]; 125 g ai/ha, scale 0-100
  Plant response rating, Radish, Wild: 85
[8]; [17]
  Plant response rating, Bromegrass, Downy: 25
[8]; [16]
  Plant response rating, Bromegrass, Downy: 20
[8]; [18]
  Plant response rating, Bromegrass, Downy: 30
[8]; postemergence, 16 g ai/ha, scale 0 to 100, 0 no effect, 100 complete control
  Plant response rating, Bromegrass, Downy: 20

## N#Cc1cccc(Oc2ncc(Cl)cn2)c1-n1cc(OCC(F)(F)F)cn1 [Compound 274, 3-[(5-chloro-2-pyrimidinyl)oxy]-2-[4-(2,2,2-trifluoroethoxy)-1H-pyrazol-1-yl]benzonitrile]
[1]; 16 g ai/ha
  pest or weed control at 16 g/ha: 60%
[1]; [9]
  pest or weed control at 31 g/ha: 70%
[1]; [10]
  pest or weed control at 62 g/ha: 90%
[1]; [11]
  pest or weed control at 125 g/ha: 95%
[2]; 16 g ai/ha
  pest or weed control at 16 g/ha: 15%
[2]; [9]
  pest or weed control at 31 g/ha: 25%
[2]; [10]
  pest or weed control at 62 g/ha: 35%
[2]; [11]
  pest or weed control at 125 g/ha: 35%
[3]; 16 g ai/ha
  pest or weed control at 16 g/ha: 20%
[3]; [9]
  pest or weed control at 31 g/ha: 30%
[3]; [10]
  pest or weed control at 62 g/ha: 35%
[3]; [11]
  pest or weed control at 125 g/ha: 40%
[4]; 16 g ai/ha
  pest or weed control at 16 g/ha: 70%
[4]; [9]
  pest or weed control at 31 g/ha: 75%
[4]; [10]
  pest or weed control at 62 g/ha: 100%
[4]; [11]
  pest or weed control at 125 g/ha: 100%
[5]; 16 g ai/ha
  plant injury at 16 g/ha: 10%
[5]; [9]
  plant injury at 31 g/ha: 15%
[5]; [10]
  plant injury at 62 g/ha: 15%
[5]; [11]
  plant injury at 125 g/ha: 25%
[6]; 16 g ai/ha
  plant injury at 16 g/ha: 10%
[6]; [9]
  plant injury at 31 g/ha: 20%
[6]; [10]
  plant injury at 62 g/ha: 20%
[6]; [11]
  plant injury at 125 g/ha: 30%
[7]; [12]
  pest or weed control at 16 g/ha: 5%
[7]; [13]
  pest or weed control at 31 g/ha: 5%
[7]; [14]
  pest or weed control at 125 g/ha: 85%
[8]; [15]
  pest or weed control at 16 g/ha: 20%
[8]; [16]
  pest or weed control at 31 g/ha: 25%
[8]; [17]
  pest or weed control at 62 g/ha: 35%
[8]; [18]
  pest or weed control at 125 g/ha: 40%
